Results as given in patent publication US8309558B2, “Compounds for the treatment of hepatitis C” (Bristol-Myers Squibb Company, priority 2008, dated 2012).
pEC50, pIC50: −log10 of the molar value. Like-named read-outs stand apart in the source and are kept apart here.

Assays:
HCV replicon cells = test: HCV replicon FRET / luciferase assay (96-well plates); type: cell-based; settings: Hepatitis C virus, HCV replicon, read-out: EC50
Procedure, shortened: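 Readout was NS3 protease cleavage of an EDANS/DABCYL FRET peptide (20 μM final) in lysed HCV replicon cells, or Renilla luciferase in reporter replicons. Background came from wells with the highest level of control protease inhibitor. EC50 marked the concentration giving 50% signal reduction.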

[1] = biological target: T1, HCV NS5B RdRp genotype 1b (Hepatitis C virus genotype 1b, UniProt Q9WMX2); test: Standard HCV NS5B RdRp enzyme assay; type: biochemical; settings: HCV NS5B RdRp genotype 1b, read-out: IC50
T1 construct: The protein was expressed with an 18 amino acid C-terminal truncation to enhance the solubility; made in house; host or cells: E. coli BL21(DE3), pET21a vector
Procedure, shortened: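 Radiometric SPA measuring 3H-UMP incorporation on polyA/biotin-oligo-dT12 (6 nM/180 nM), 0.29 μM total UTP. Enzyme: NS5B 1b lacking last 18 residues, 28 nM final, 30° C for 60 min in 20 mM Hepes pH 7.5, 2.5 mM MgCl2, 2% DMSO. IC50 from seven-point curves.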

T1 sequence (Q9WMX2 2420-2992): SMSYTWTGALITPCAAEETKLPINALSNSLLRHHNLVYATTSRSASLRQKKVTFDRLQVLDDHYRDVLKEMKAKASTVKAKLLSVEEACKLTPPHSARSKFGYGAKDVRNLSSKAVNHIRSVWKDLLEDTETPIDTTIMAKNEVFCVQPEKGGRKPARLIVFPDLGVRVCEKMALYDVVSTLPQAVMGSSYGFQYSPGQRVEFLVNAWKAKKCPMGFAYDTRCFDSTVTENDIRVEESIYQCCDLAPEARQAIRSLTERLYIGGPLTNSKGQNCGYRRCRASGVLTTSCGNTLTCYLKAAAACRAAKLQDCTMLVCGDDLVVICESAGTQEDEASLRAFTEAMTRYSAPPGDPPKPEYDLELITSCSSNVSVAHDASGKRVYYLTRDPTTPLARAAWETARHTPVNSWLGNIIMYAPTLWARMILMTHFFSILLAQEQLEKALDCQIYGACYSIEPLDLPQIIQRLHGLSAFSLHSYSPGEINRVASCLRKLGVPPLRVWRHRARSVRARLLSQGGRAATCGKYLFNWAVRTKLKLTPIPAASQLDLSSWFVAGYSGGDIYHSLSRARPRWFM

Row | Compound | pEC50 (HCV replicon cells; Table 1a) | pIC50 ([1]; Table 1a) | pEC50 (HCV replicon cells; Table 1b) | pIC50 ([1]; Table 1b)
1 | CNC(=O)c1c(-c2ccc(F)cc2)oc2ccc(-c3cccc(C(=O)NC(C)C)c3)cc12 | > 6.60 | > 6.60 |  | 
2 | CNC(=O)c1c(-c2ccc(F)cc2)oc2ccc(-c3cccc(C(=O)Nc4cccnc4)c3)cc12 | > 6.60 | > 6.60 |  | 
3 | CNC(=O)c1c(-c2ccc(F)cc2)oc2ccc(-c3cccc(C(=O)Nc4ccc(C)cn4)c3)cc12 | > 6.60 | > 6.60 |  | 
4 | CNC(=O)c1c(-c2ccc(F)cc2)oc2ccc(-c3cccc(C(=O)Nc4ccccn4)c3)cc12 | > 6.60 | > 6.60 |  | 
5 | CNC(=O)c1c(-c2ccc(F)cc2)oc2ccc(-c3cccc(C(=O)NC(C)c4ccc(F)cc4)c3)cc12 (stereo not drawn) | > 6.60 | > 6.60 |  | 
6 | CNC(=O)c1c(-c2ccc(F)cc2)oc2ccc(-c3cccc(C(=O)N[C@@H](C)c4ccc(F)cc4)c3)cc12 | > 6.60 | > 6.60 |  | 
7 | CNC(=O)c1c(-c2ccc(F)cc2)oc2ccc(-c3cccc(C(=O)N[C@H](C)c4ccc(F)cc4)c3)cc12 | > 6.60 | > 6.60 |  | 
8 | CNC(=O)c1c(-c2ccc(F)cc2)oc2ccc(-c3cccc(C(=O)NC(C)(C)c4ccc(F)cc4)c3)cc12 | > 6.60 | > 6.60 |  | 
9 | CNC(=O)c1c(-c2ccc(F)cc2)oc2ccc(-c3cccc(C(=O)NC(C)(C)c4ccccc4)c3)cc12 | > 6.60 | > 6.60 |  | 
10 | CNC(=O)c1c(-c2ccc(F)cc2)oc2ccc(-c3cccc(C(=O)Nc4ccncc4)c3)cc12 | > 6.60 | > 6.60 |  | 
11 | CNC(=O)c1c(-c2ccc(F)cc2)oc2ccc(-c3cccc(C(=O)Nc4ccccc4)c3)cc12 | > 6.60 | > 6.60 |  | 
12 | CNC(=O)c1c(-c2ccc(F)cc2)oc2ccc(-c3cccc(C(=O)Nc4cccc(C#N)c4)c3)cc12 | > 6.60 | 6.00 to 6.60 |  | 
13 | CNC(=O)c1c(-c2ccc(F)cc2)oc2ccc(-c3cccc(C(=O)Nc4cnccn4)c3)cc12 | > 6.60 | > 6.60 |  | 
14 | CNC(=O)c1c(-c2ccc(F)cc2)oc2ccc(-c3cccc(C(=O)Nc4ccc(OC)cc4)c3)cc12 | > 6.60 | > 6.60 |  | 
15 | CNC(=O)c1c(-c2ccc(F)cc2)oc2ccc(-c3ccc(Cl)c(C(=O)NC(C)(C)c4ccccc4)c3)cc12 | > 6.60 | > 6.60 |  | 
16 | CNC(=O)c1c(-c2ccc(F)cc2)oc2ccc(-c3cccc(C(=O)NC4(c5ccccc5)CCC4)c3)cc12 | > 6.60 | > 6.60 |  | 
17 | CNC(=O)c1c(-c2ccc(F)cc2)oc2ccc(-c3cc(C(=O)NCC(C)C)ccc3OC)cc12 | > 6.60 | > 6.60 |  | 
18 | CCCOc1ccc(C(=O)NCC(C)C)cc1-c1ccc2oc(-c3ccc(F)cc3)c(C(=O)NC)c2c1 |  |  | 6.00 to 6.60 | 5.00 to 6.00
19 | CNC(=O)c1c(-c2ccc(F)cc2)oc2ccc(-c3cc(C(=O)NCC(C)C)ccc3OCCC(C)C)cc12 |  |  | 5.00 to 6.00 | < 5.00
20 | CNC(=O)c1c(-c2ccc(F)cc2)oc2cc(N)c(-c3cc(C(=O)NCC(C)C)ccc3OC)cc12 |  |  | > 6.60 | > 6.60
21 | CNC(=O)c1c(-c2ccc(F)cc2)oc2cc(NS(C)(=O)=O)c(-c3cc(C(=O)NC4(c5ccccc5)CC4)ccc3F)cc12 |  |  | > 6.60 | > 6.60
22 | CCC(NC(=O)c1ccc(F)c(-c2cc3c(C(=O)NC)c(-c4ccc(F)cc4)oc3cc2NS(C)(=O)=O)c1)c1ccccc1 (stereo not drawn) |  |  | > 6.60 | > 6.60
23 | CNC(=O)c1c(-c2ccc(F)cc2)oc2ccc(-c3cccc(C(=O)NC4(c5ccccc5)CC4)c3OC)cc12 |  |  | < 5.00 | < 5.00
24 | CNC(=O)c1c(-c2ccc(F)cc2)oc2ccc(-c3cc(C(=O)NC4(c5ccccc5Cl)CC4)ccc3Cl)cc12 |  |  | > 6.60 | 6.00 to 6.60
25 | CNC(=O)c1c(-c2ccc(F)cc2)oc2cc(N(C)S(C)(=O)=O)c(-c3cccc(C(=O)NC(C)(C)c4ccccc4)c3)cc12 |  |  | > 6.60 | > 6.60
26 | CCC(CC)(NC(=O)c1ccc(Cl)c(-c2ccc3oc(-c4ccc(F)cc4)c(C(=O)NC)c3c2)c1)c1ccccc1 |  |  | > 6.60 | > 6.60
27 | CNC(=O)c1c(-c2ccc(F)cc2)oc2cc(N)c(-c3cccc(C(=O)NCC(C)C)c3)cc12 |  |  | > 6.60 | > 6.60
28 | CNC(=O)c1c(-c2ccc(F)cc2)oc2ccc(-c3cc(C(=O)NCC(C)C)ccc3OCCOC)cc12 |  |  | > 6.60 | 6.00 to 6.60
29 | CNC(=O)c1c(-c2ccc(F)cc2)oc2cc(N(CCO)S(C)(=O)=O)c(-c3cccc(C(=O)NC(C)(C)C)c3)cc12 |  |  | > 6.60 | > 6.60
30 | CNC(=O)c1c(-c2ccc(F)cc2)oc2cc(N(CCO)S(C)(=O)=O)c(-c3cccc(C(=O)NC4(c5ccccn5)CC4)c3)cc12 |  |  | > 6.60 | > 6.60
